{"source": "patent US11478550B2", "about": "“Biodegradable hydrogel and methods for use thereof” (International Business Machines Corporation, priority 2018, dated 2022)", "key": {"[1]": {"tested_on": "Human multiple myeloma (MM.1S) cells", "assay": "Cytotoxicity test (CellTiter 96 AQueous One)", "assay_type": "cell-based", "conditions": "48 h, alone or combined with the hydrogels (FIG. 2)", "method": "Human multiple myeloma (MM.1S) cells were seeded at a density of 10×10^3 cells per well onto a 96 well plate and incubated overnight at 37° C. On the day of treatment, the medium was removed and 90 μl of RPMI was added to each well. Following this, 10 μL of the hydrogels or micelles-containing hydrogels were added to the cells. The plate was then incubated for another 48 h at 37° C. Reagents from the CellTiter 96® AQueous One Solution Cell Proliferation Assay Kit (Promega, USA) and RPMI were then mixed at a volume ratio of 1:4 and 100 μL of this mixture was then added to each well and the cells were left to incubate in the dark at 37° C. for 2 h. Untreated cells were then used as the control. Subsequently, the absorbance at 490 nm was measured and the readings were then expressed as a percentage of the cell viability of the control."}, "[2]": {"tested_on": "refractory and/or relapsed MM", "conditions": "single agent; cited from earlier work"}, "[3]": {"conditions": "cited from earlier work"}}, "note": "Like-named read-outs stand apart in the source and are kept apart here.", "data": [{"smiles": "CC(C)C[C@H](NC(=O)[C@H](Cc1ccccc1)NC(=O)c1cnccn1)B(O)O", "note": "[BTZ, bortezomib]", "values": [{"measurement": "effect on cell viability", "setting": "[1]", "value": "marked effect on cell viability"}, {"measurement": "1-year overall survival rate", "setting": "[2]", "value": 80, "unit": "%"}, {"measurement": "longer median time to progression compared to dexamethasone", "setting": "[2]", "value": 78, "unit": "%"}, {"measurement": "time to reach mean maximum plasma concentration", "setting": "[3]; intravenous bolus", "value": 3, "unit": "min"}, {"measurement": "time to reach mean maximum plasma concentration", "setting": "[3]; subcutaneous administration", "value": 120, "unit": "min"}]}]}
